Data set [1] has as its system GL261 mouse glioma. As to the kind of experiment: NEO100-mediated human CAR T cell delivery to brain and tumor (CD3 IHC). The data set is classed as in vivo. On the procedure:
2-million CD19 and Lym-1 human CAR T cells that were suspended in 0.9% saline working solution to be used for the IV injection with and without intracardiac NEO100.
Preparation of the working solution for intracardiac injection of NEO100: 3% NEO100 suspended in 0.9% saline.
40 μl 3% NEO100 in saline was injected slowly to complete intracardiac application. Direct cell injection into the heart could cause local microinfaractions if the cells are clumpy during injection, hemopericardium and death as a consequence. This is why ultrasound guided injections with a small 30 G needle is important to minimize these potential adverse effects, (1) enabling the visualization of the needle tract to ensure that the needle enters the left ventricle only, and (2) subsequent monitoring of the heart through not only ECG but visualization of heart wall function after the injection. The fine gauge of the needle ensures that the cells are not clumpy when the cells are injected through intracardiac puncture.
Immediate after the completion of NEO100 injection, 2 million human CAR T cells in 40 μl PBS were injected through tail vein catheter that pre-primed with saline solution. To avoid the possible adverse effects mentioned above by direct cell injection through intracardiac application, we set up 2-step procedures for the study.
Step 1: 40 μl 3% NEO100 in saline was injected slowly to complete intracardiac application. This procedure allows NEO100 to exert the function of BBB disruption.
Step 2:2-million CAR T cells were injected by IV through tail vein catheter.
Brain Perfusion—In order to rule out the residue left over inside the blood vessel after euthanizing, the testing animals were perfused by 10 ml 0.9% normal saline solution through left ventricle to flush out the blood.
Confocal Imaging—8 UM fresh frozen sections were made by cryostasis machine and pasted on microslide. Coverslip was mounted on the brain section by DAPI mounting medium before Confocal examination. […]

Data set [2] deals with recurrent malignant gliomas. Particulars: intranasal delivery, cited from earlier work.
Data set [3] has as its system BBB in an in vitro BBB model. As to the kind of experiment: In vitro BBB model, remdesivir transport across Transwell. It is filed as cell-based. Particulars: POH 1.5 mM; POH-Remdesivir vs H2O-Remdesivir in upper chamber; 4 hours. On the procedure: For the in vitro, cells were plated in the upper chamber of a Transwell. The POH-Remdesivir or H2O-Remdesivir mixture was placed in the upper chamber. POH was at a concentration of 1.5 mM. The media from both upper and lower chambers were collected after 4 hours and quantitated for remdesivir.

For data set [4], the system named is GL261 mouse glioma. Description: Anti-mouse PD-1 antibody therapeutic efficacy (survival) in intracranial syngeneic glioma. It is filed as in vivo, C57 BL/6 mice. Particulars: IC 40 μl 5% NEO100 and/or IV anti-PD1 2.5 mg/kg; treatment from day 7. As for the experimental part:
100,000 GL261 mouse glioma cells were injected intracranially to immune competent mice, C57 BL/6. 7 days post the injection, the mice were randomly divided into 4 experimental groups, and initiated the treatment at the same day. • Group 1. Control: IV and Intracardiac injection of 40 μl Saline Solution (5). • Group 2. Antibody treated mice: IV 40 μl Anti-mouse PD1 antibody at the dose of 2.5 mg/kg (5). • Group 3. NEO100 treated mice: Intracardiac injection of 40 μl 5% NEO100(5). • Group 4. Combination of NEO100 and antibody treated mice: Intracardiac 40 μl 5% NEO100, followed by IV 40 μl Anti-PD1 antibody at the dose of 2.5 mg/kg (6).
Animal survival data were plotted using the Kaplan-Meier method. One-way ANOVA was used for the overall test for differences. Grouped comparisons were performed using the Tukey method of adjusting for multiple comparisons. Logrank (Mantel-Cox) test was applied for the comparison of survival curves. A statistical evaluation result of p<0.05 was considered significant. • Control vs IC NEO100+IV Anti-mouse PD-1: *** P<0.0003 • Control vs IV Anti-mouse PD-1: ns, p=0.31 • IV Anti-mouse PD-1 vs IC NEO100+IV Anti-mouse: ** P<0.005 • Control vs IC NEO100: ns, p=0.397

Data set [5] has as its system Madin-Darby Canine Kidney (MDCK) cells. Description: In vitro BBB tight junction model (Transwell, TEER, fluorescent antibody). It is filed as cell-based. As for the experimental part:
The labelled components are Transwell chemotaxis chamber; upper chamber; porous membrane and lower chamber. Transwell culture chambers (pore size: 0.8 μm). Madin-Darby Canine Kidney (MDCK) cells are epithelial cells. TEER: transepithelial/transendothelial electrical resistance. Fluorescence Ab: Alexa Fluo®488; donkey anti-rat IgG (H+L). Fluorescence was measured in the lower chamber in about 120 minutes.

“Also recorded” adds a separate entry of the source.

Protocol for blood-brain-barrier: Brain Perfusion-Before euthanizing, the testing animals was perfused by 0.9% normal saline solution through left ventricle. The brain was removed and buried in OCT, and stored in −80° C. for further analysis.
Ultrasound Guided Intracardiac Puncture-Briefly, the animals were anesthetized using 2% isoflurane gas and fixed on the platform for intracardiac puncture. To penetrate the syringe needle into intercoastal space promptly through skin and muscle layers into the left ventricle under the guidance of ultrasound imaging. An indication of successful insertion of the needle into the left ventricle is the reflux of fresh arterial blood (pink color in contrast to dark red venous blood) into the syringe.
The extravasation of stained albumin from circulation could be visualized.
NEO100 was delivered via intra-cardiac injection (left ventricle) to determine if there is increased uptake of Evans Blue, a BBB nonpermeable small molecule (dopamine), or antibodies into the brain. […] Different concentration of NE0100 (40 μl in 0.9% saline) was tested through intracardiac puncture, followed by immediate intravenous application of 2% Evans Blue (40 μl in volume). The brain was removed after perfusion.
Experimental groups include: • IC 2% EB only • IC 20% ethanol+2% EB • IC 20% ethanol+2% EB+5% NEO100 • IC 20% ethanol+5% NEO100, followed by 2% EB tail vein injection • IV 20% ethanol+2% EB+5% NEO100 • IV 20% ethanol+2% EB
The immune competent C57 BL/6 mice was injected with 5% NEO100 (v/v) through intracardiac puncture (IC), followed by intravenous injection of 2% Evans Blue at different time points, such as 0, 5 min, 15 min, 30 min, 1-hour, 2-hour, 3-hour, and 4 hours, post the IC injection.
The experimental procedure included: • 1. Intracardiac Injection (IC): 5% NEO100. • 2. Followed by intravenous injection (IV) of 2% EB at different times. • 3. The testing animals were euthanized one hour after the IV injection.

Turning to `C=C(C)[C@@H]1CC=C(CO)CC1` [NEO100, perillyl alcohol], the “severe adverse effect or animal death” value with GL261 mouse glioma [1] (3% NEO100 intracardiac injection, 40 μl) was “does not cause any severe adverse effect or animal death”. The “penetration of human CAR T cells into the tumor formed inside the brain” value in the data set with GL261 mouse glioma [1] (IC 3% NEO100 then IV 2 million anti-CD19 or Lym-1 CAR T cells, compared to IV only, 6 h) is listed as “greatly increase the penetration”. Further, in the data set with GL261 mouse glioma [1] (IC NEO100 vs IV injection only samples), the “CD3 positive cells in the normal parts of brain” value was “More CD3 positive cells”. Also, the “treated patients achieving 6 month progression-free period” value in data set [2] (140 treated patients) is recorded as 50%. In data set [2], the “disease remission, several patients” value is reported as at most 3 years; the disease response entry is recorded as “regression or stabilization of the disease”; the “side effects from the treatment” value was “almost non-existent”. The “delivery of remdesivir across the BBB” value in data set [3] was “very efficient”. Moreover, in the data set with GL261 mouse glioma [4], the animal survival result was “dead”. Further, the “penetration of fluorescence labelled antibody across in vitro BBB model” value in data set [5] (Alexa Fluor 488 donkey anti-rat IgG, lower chamber at about 120 minutes) is “transiently allow labeled antibodies to transiently cross it; also recorded: enhanced penetration”. In addition, in data set [5] (NEO100 2 mM), the TEER result is “decreased”. Moreover, the “disturbance of the BBB (Evans Blue uptake into brain)” value in the data set with blood-brain-barrier (1:1000 dilution (6.5 mM 40 μl) IC, then IV 2% Evans Blue) was “still effective to disturb the BBB”. The “dopamine delivery to brain” value in the data set with blood-brain-barrier (intracardiac NEO100) is reported as “mediated dopamine delivery through the breached blood-brain-barrier”. For the same compound, in the data set with blood-brain-barrier (intracardiac injection (equivalent to intra-arterial injection for mice)), the “opening of the BBB for antibodies” value is on record as “could open the BBB for antibodies”. Further, the “tight junction in the brain” value in the data set on blood-brain-barrier (intracardiac injection of 5% NEO100 compared to normal brain) is “breached dramatically”. For the same compound, the “safety of intraarterial administration” value in the data set with blood-brain-barrier (mouse, in vivo) is listed as “safe”.

The record behind these values is US20250186472A1, “COMBINATION OF POH AND REMDESIVIR FOR TREATMENT OF CNS INFECTIONS” (NeOnc Technologies, Inc., priority 2020, published 2025).
